These results are taken from patent publication US20090017042A1, “PROCESS FOR THE DETERMINATION OF THE PRIMARY STRUCTURE OF THE MESSENGER RNA CODING FOR THE HUMAN RECOMBINANT ENDOOLIGOPEPTIDASE A (HEOPA) [AF217798]” (priority 2002, published 2009).

One may read the Ki as a measure of affinity in units of concentration, obtained from inhibition or displacement.

For test [1], the target named is T1, rEOPA (recombinant endooligopeptidase A) (Homo sapiens, UniProt Q9GZM8).
T1 construct: poly-histidine tag or anchor protein (e.g. GST) (N, cleaved yes); made in house; host or cells: Escherichia coli (DH5alpha, BL21(DE3) or similar), vector e.g. pProEx-HTc
T1 sequence (Q9GZM8 1-345): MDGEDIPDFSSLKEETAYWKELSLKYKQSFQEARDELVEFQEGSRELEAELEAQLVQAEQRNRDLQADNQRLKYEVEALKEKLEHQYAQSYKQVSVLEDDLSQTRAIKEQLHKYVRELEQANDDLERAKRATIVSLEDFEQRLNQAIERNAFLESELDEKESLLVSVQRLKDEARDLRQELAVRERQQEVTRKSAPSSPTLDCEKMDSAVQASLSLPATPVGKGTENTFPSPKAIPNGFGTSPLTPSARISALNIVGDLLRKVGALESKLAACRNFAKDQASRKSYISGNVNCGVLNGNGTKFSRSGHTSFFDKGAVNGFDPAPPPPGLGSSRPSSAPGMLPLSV
The test is described as follows: Inhibition of the catalytic activity of recombinant EOPA (kinetic assay, quenched fluorescence peptide substrate or HPLC). Format: biochemical. Particulars: for Ki: rEOPA. The source says:
Polyclonal antibodies were generated in rats, mice and rabbits, using the purified natural EOPA or the active recombinant EOPA, expressed in bacteria, specifically in Escherichia coli, for the immunization. Male Balb-C mice, 7 to 8 weeks old, and weighing between 18 and 22 g were immunized with purified natural human EOPA, or catalytically active recombinant enzyme. For each of the four immunizations, 2.mμ.g of the purified protein or 3.mμ.g of the recombinant protein, absorbed on aluminum hydroxide [Al(OH)3] were injected intradermically, in weekly intervals. Blood samples were collected one week after the last immunization, and the serum was stored at −20° C. The antiserum titer was evaluated by ELISA, using the appropriate antigen. The anti-catalytic activity of the obtained antiserum was evaluated by HPLC or fluorimetrically, using the quenched fluorescent peptides substrates. Before use, the antiserum was pre-heated at 55° C., for 5 minutes, in order to eliminate any contaminating peptidase activity. […] Using this antibody, it was possible to discriminate the activity of the EOPA from functionally similar, but not homologous enzymes, such as the TOP and the NL, which are also present in animal tissues and cells lineages.
Kinetic assays using natural peptide substrates like bradykinin, neurotensin and opioid peptides, composed by 9 to 13 amino acid residues, were essential for the discovery and characterization of the EOPA in our laboratory (see the summary of this literature in Camargo et al., 1994). Since 1990, we have developed peptide substrates derived from natural substrates with quenched fluorescence, standardizing the characterization of this enzyme, simplifying and reducing the costs, and making the characterization of the kinetic properties of the EOPA more reliable (Juliano et al., 1990). The peptide substrates with quenched fluorescence (qf) used have the radical Abz (ortho-aminobenzoic acid) at the amino terminus of the peptide, and the EDDnp [N-(2,4-dinitrophenyl)ethylenediamine] at the carboxyl terminus of the peptide. […]

For test [2], the target named is thimet oligopeptidase (TOP) (Homo sapiens, UniProt P52888). The note with it: cited from earlier work.
thimet oligopeptidase (TOP), sequence (P52888 whole entry, species assumed): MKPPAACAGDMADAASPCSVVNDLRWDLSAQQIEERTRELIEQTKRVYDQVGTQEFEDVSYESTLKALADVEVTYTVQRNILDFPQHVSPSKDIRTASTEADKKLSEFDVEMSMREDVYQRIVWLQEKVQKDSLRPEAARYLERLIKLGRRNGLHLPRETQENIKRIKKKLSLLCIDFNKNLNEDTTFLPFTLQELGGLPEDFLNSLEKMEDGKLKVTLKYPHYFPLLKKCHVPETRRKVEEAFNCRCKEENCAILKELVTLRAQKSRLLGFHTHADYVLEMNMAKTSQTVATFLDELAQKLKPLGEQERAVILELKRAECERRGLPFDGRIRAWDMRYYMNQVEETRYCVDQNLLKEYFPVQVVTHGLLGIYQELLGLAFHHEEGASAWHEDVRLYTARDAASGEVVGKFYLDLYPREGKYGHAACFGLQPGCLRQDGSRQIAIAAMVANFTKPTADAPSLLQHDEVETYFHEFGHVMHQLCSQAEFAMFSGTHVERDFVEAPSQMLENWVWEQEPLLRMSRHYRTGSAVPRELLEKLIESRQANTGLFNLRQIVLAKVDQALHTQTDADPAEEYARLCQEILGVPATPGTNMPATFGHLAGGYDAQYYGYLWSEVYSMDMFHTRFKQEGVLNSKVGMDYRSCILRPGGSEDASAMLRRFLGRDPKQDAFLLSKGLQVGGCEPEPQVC
For test [3], the target named is neurolysin (NL) (Homo sapiens, UniProt Q9BYT8). Kind of test: Inhibition of neurolysin. Format: biochemical.
neurolysin (NL), sequence (Q9BYT8 38-704): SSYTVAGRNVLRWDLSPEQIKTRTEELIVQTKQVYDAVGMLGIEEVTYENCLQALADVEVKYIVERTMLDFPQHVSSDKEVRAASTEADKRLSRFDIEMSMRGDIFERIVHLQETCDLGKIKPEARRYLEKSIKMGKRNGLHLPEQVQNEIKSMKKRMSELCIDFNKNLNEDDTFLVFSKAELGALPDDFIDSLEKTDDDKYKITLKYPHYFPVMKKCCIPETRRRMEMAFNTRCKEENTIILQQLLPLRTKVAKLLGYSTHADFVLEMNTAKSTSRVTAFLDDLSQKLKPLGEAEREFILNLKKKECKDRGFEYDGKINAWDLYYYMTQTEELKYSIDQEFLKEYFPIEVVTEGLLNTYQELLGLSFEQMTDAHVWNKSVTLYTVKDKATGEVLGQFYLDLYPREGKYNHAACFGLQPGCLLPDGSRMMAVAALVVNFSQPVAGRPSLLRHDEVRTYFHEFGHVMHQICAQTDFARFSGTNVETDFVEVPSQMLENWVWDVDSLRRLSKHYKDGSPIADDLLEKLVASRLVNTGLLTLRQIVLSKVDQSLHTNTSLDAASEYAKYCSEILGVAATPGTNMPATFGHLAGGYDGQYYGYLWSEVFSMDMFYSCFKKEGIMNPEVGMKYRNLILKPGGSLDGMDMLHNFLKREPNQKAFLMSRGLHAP
The test system of test [4] is neuronal precursor cells from embryonic stem cells (USP-1 lineage). The test is described as follows: Treatment of neuronal precursor cells differentiated from embryonic stem cells with EOPA inhibitor. Format: cell-based. Particulars: neuronal precursor cells treated with the inhibitor. As to the method:
The undifferentiated embryonic stem cells (USP-1 lineage) were cultured in medium containing: DMEM, supplemented with 15% of bovine fetal serum, […] of penicillin/streptomycin and 2 mM of L-glutamine, 1% of non-essential amino acids, 10^−4 M of monothioglicerol, and LIF (Leukemia Inhibitory Factor), in a final concentration of 1,000 units/ml. All the undifferentiated stem cells culture was maintained over a primary culture of previously irradiated murine fibroblasts (Neo Mef2). The differentiation was done after the formation of the embryoid bodies, where 750 cells were maintained in 20 μl of the culture medium drops over a Petri dish, during four days at 37° C., under 5% carbonic gas (during this period the cells form the cellular aggregates known as embryoid bodies). […] After completing the differentiation of the stem cells, the differentiated cells were counted and photographed using a confocal microscopy. A population of cells differentiated into neurons was obtained following the protocol described above, and the influence of the inhibition of the EOPA catalytic activity during the differentiation and maturation process of these neurons was analyzed after the treatment of these cells with the inhibitor JA2.

In test [5] the target is T1, rEOPA (recombinant endooligopeptidase A). The note with it: state of the art; cited from earlier work.

Several values for one entry are separate records, joined by “and”; a condition that tells them apart may be missing. Identical values can stand only once.

Consider `C[C@H](NC(CCc1ccccc1)C(=O)O)C(=O)NC(C)(C)C(=O)N[C@@H](Cc1ccc(O)cc1)C(=O)Nc1ccc(C(=O)O)cc1` (stereo partly shown) [JA2], for which the Ki in test [1] is ~17 nM and 17 nM; in test [2], 23 nM; in test [3] it was > 200 nM. The “differentiation of the cells” value in test [4] was “abnormal differentiation of the cells”. Besides, in test [4], the neurites formation result is given as “inhibition of the neurites formation”.
For `O=C(O)c1cc(SSc2ccc([N+](=O)[O-])c(C(=O)O)c2)ccc1[N+](=O)[O-]` [5′-dithio-bis-(2-nitrobenzoic acid)], in test [5], the “effect of thiol agents on EOPA activity (kinetic assays)” value (shortened to “effect of thiol agents on EOPA activity”) is “inhibited”.
As to `O[C@H](CS)[C@H](O)CS` (racemic) [dithiothreitol (DTT), dithiothreitol], the “effect of thiol agents on EOPA activity” value in test [5] was “activated”.
For the compound `O=C(O)c1cc[c]([Hg][Cl])cc1` [p-chloromercuribenzoate (PCMB), p-chloromercuribenzoate], in test [5], the “effect of thiol agents on EOPA activity” value is on record as “inhibited”.
In the case of `O=C(O)CN(CCN(CC(=O)O)CC(=O)O)CC(=O)O` [EDTA], in test [1], the “sensitivity of EOPA to metalloprotease-directed agents” value was “insensible”.
For `C[C@H](NC(=O)[C@H](C)NC(CCc1ccccc1)C(=O)O)C(=O)N[C@@H](Cc1ccc(O)cc1)C(=O)Nc1ccc(C(=O)O)cc1` (stereo partly shown) [cFP], the Ki in test [1] was ~17 nM.
